Test results: US20150148235A1, “HERBICIDE-RESISTANT SUNFLOWER PLANTS WITH MULTIPLE HERBICIDE RESISTANT ALLELES OF AHASL1 AND METHODS OF USE” (NIDERA S.A., priority 2013, published 2015)

System: sunflower hybrids and lines (A122T, A205V, A205V/A122T)
Experiment: Field trial North Dakota 2006, phytotoxicity ratings after imazamox or imazapyr, Example 3
Type: in vivo, Helianthus annuus
Protocol: • Spray volume: 10 gallons per acre (GPA) (or 100 liters/ha) for backpack sprayer or 20 GPA (or 200 liters/ha) for tractor mounted boom • Growth Stage at Herbicide Application: 2-4 leaves
Entry 15 (WT Maintainer line) was left unsprayed in all treatment blocks.
Phytotoxicity ratings were assessed at 7 and 21 days following herbicide application.
The data was subjected to an ANOVA analysis and the means from the 3 repetitions are presented in Table 7 (phytotoxicity at 7 days post-treatment) and Table 8 (phytotoxicity at 21 days post-treatment).

COCc1cnc(C2=NC(C)(C(C)C)C(=O)N2)c(C(=O)O)c1 (centres unmarked) [imazamox]
Phytotoxicity Rating (% Crop Injury) (1-hybrid (WT × IMI restorer, A205 hetero), 50 g ai/ha + 0.25% NIS, 7 DAT): 8.3%
Phytotoxicity Rating (% Crop Injury) (1-hybrid (WT × IMI restorer, A205 hetero), 50 g ai/ha + 0.25% NIS, 21 DAT): 6.7%
Phytotoxicity Rating (% Crop Injury) (1-hybrid (WT × IMI restorer, A205 hetero), 100 g ai/ha + 0.25% NIS, 7 DAT): 35.0%
Phytotoxicity Rating (% Crop Injury) (1-hybrid (WT × IMI restorer, A205 hetero), 100 g ai/ha + 0.25% NIS, 21 DAT): 25.0%
Phytotoxicity Rating (% Crop Injury) (1-hybrid (WT × IMI restorer, A205 hetero), 200 g ai/ha + 0.25% NIS, 7 DAT): 48.3%
Phytotoxicity Rating (% Crop Injury) (1-hybrid (WT × IMI restorer, A205 hetero), 200 g ai/ha + 0.25% NIS, 21 DAT): 73.3%
Phytotoxicity Rating (% Crop Injury) (3-hybrid (WT × IMI restorer, A205 hetero), 50 g ai/ha + 0.25% NIS, 7 DAT): 11.7%
Phytotoxicity Rating (% Crop Injury) (3-hybrid (WT × IMI restorer, A205 hetero), 50 g ai/ha + 0.25% NIS, 21 DAT): 11.7%
Phytotoxicity Rating (% Crop Injury) (3-hybrid (WT × IMI restorer, A205 hetero), 100 g ai/ha + 0.25% NIS, 7 DAT): 46.7%
Phytotoxicity Rating (% Crop Injury) (3-hybrid (WT × IMI restorer, A205 hetero), 100 g ai/ha + 0.25% NIS, 21 DAT): 46.7%
Phytotoxicity Rating (% Crop Injury) (3-hybrid (WT × IMI restorer, A205 hetero), 200 g ai/ha + 0.25% NIS, 7 DAT): 60.0%
Phytotoxicity Rating (% Crop Injury) (3-hybrid (WT × IMI restorer, A205 hetero), 200 g ai/ha + 0.25% NIS, 21 DAT): 76.7%
Phytotoxicity Rating (% Crop Injury) (4-line (IMI Restorer, A205 homo), 50 g ai/ha + 0.25% NIS, 7 DAT): 6.7%
Phytotoxicity Rating (% Crop Injury) (4-line (IMI Restorer, A205 homo), 50 g ai/ha + 0.25% NIS, 21 DAT): 5.0%
Phytotoxicity Rating (% Crop Injury) (4-line (IMI Restorer, A205 homo), 100 g ai/ha + 0.25% NIS, 7 DAT): 6.7%
Phytotoxicity Rating (% Crop Injury) (4-line (IMI Restorer, A205 homo), 100 g ai/ha + 0.25% NIS, 21 DAT): 6.7%
Phytotoxicity Rating (% Crop Injury) (4-line (IMI Restorer, A205 homo), 200 g ai/ha + 0.25% NIS, 7 DAT): 18.3%
Phytotoxicity Rating (% Crop Injury) (4-line (IMI Restorer, A205 homo), 200 g ai/ha + 0.25% NIS, 21 DAT): 15.0%
Phytotoxicity Rating (% Crop Injury) (6-hybrid (IMI CMS × IMI restorer, A205 homo), 50 g ai/ha + 0.25% NIS, 7 DAT): 5.0%
Phytotoxicity Rating (% Crop Injury) (6-hybrid (IMI CMS × IMI restorer, A205 homo), 50 g ai/ha + 0.25% NIS, 21 DAT): 0.0%
Phytotoxicity Rating (% Crop Injury) (6-hybrid (IMI CMS × IMI restorer, A205 homo), 100 g ai/ha + 0.25% NIS, 7 DAT): 8.3%
Phytotoxicity Rating (% Crop Injury) (6-hybrid (IMI CMS × IMI restorer, A205 homo), 100 g ai/ha + 0.25% NIS, 21 DAT): 3.3%
Phytotoxicity Rating (% Crop Injury) (6-hybrid (IMI CMS × IMI restorer, A205 homo), 200 g ai/ha + 0.25% NIS, 7 DAT): 26.7%
Phytotoxicity Rating (% Crop Injury) (6-hybrid (IMI CMS × IMI restorer, A205 homo), 200 g ai/ha + 0.25% NIS, 21 DAT): 21.7%
Phytotoxicity Rating (% Crop Injury) (7-hybrid (WT-CMS × IMI restorer, A205 hetero), 50 g ai/ha + 0.25% NIS, 7 DAT): 13.3%
Phytotoxicity Rating (% Crop Injury) (7-hybrid (WT-CMS × IMI restorer, A205 hetero), 50 g ai/ha + 0.25% NIS, 21 DAT): 3.3%
Phytotoxicity Rating (% Crop Injury) (7-hybrid (WT-CMS × IMI restorer, A205 hetero), 100 g ai/ha + 0.25% NIS, 7 DAT): 43.3%
Phytotoxicity Rating (% Crop Injury) (7-hybrid (WT-CMS × IMI restorer, A205 hetero), 100 g ai/ha + 0.25% NIS, 21 DAT): 40.0%
Phytotoxicity Rating (% Crop Injury) (7-hybrid (WT-CMS × IMI restorer, A205 hetero), 200 g ai/ha + 0.25% NIS, 7 DAT): 56.7%
Phytotoxicity Rating (% Crop Injury) (7-hybrid (WT-CMS × IMI restorer, A205 hetero), 200 g ai/ha + 0.25% NIS, 21 DAT): 78.3%
Phytotoxicity Rating (% Crop Injury) (8-hybrid (WT × GM40 restorer, A122 hetero), 50 g ai/ha + 0.25% NIS, 7 DAT): 13.3%
Phytotoxicity Rating (% Crop Injury) (8-hybrid (WT × GM40 restorer, A122 hetero), 50 g ai/ha + 0.25% NIS, 21 DAT): 6.7%
Phytotoxicity Rating (% Crop Injury) (8-hybrid (WT × GM40 restorer, A122 hetero), 100 g ai/ha + 0.25% NIS, 7 DAT): 13.3%
Phytotoxicity Rating (% Crop Injury) (8-hybrid (WT × GM40 restorer, A122 hetero), 100 g ai/ha + 0.25% NIS, 21 DAT): 11.7%
Phytotoxicity Rating (% Crop Injury) (8-hybrid (WT × GM40 restorer, A122 hetero), 200 g ai/ha + 0.25% NIS, 7 DAT): 25.0%
Phytotoxicity Rating (% Crop Injury) (8-hybrid (WT × GM40 restorer, A122 hetero), 200 g ai/ha + 0.25% NIS, 21 DAT): 28.3%
Phytotoxicity Rating (% Crop Injury) (9-line (GM40 restorer, A122 homo), 50 g ai/ha + 0.25% NIS, 7 DAT): 1.7%
Phytotoxicity Rating (% Crop Injury) (9-line (GM40 restorer, A122 homo), 50 g ai/ha + 0.25% NIS, 21 DAT): 0.0%
Phytotoxicity Rating (% Crop Injury) (9-line (GM40 restorer, A122 homo), 100 g ai/ha + 0.25% NIS, 7 DAT): 5.0%
Phytotoxicity Rating (% Crop Injury) (9-line (GM40 restorer, A122 homo), 100 g ai/ha + 0.25% NIS, 21 DAT): 0.0%
Phytotoxicity Rating (% Crop Injury) (9-line (GM40 restorer, A122 homo), 200 g ai/ha + 0.25% NIS, 7 DAT): 10.0%
Phytotoxicity Rating (% Crop Injury) (9-line (GM40 restorer, A122 homo), 200 g ai/ha + 0.25% NIS, 21 DAT): 3.3%
Phytotoxicity Rating (% Crop Injury) (10-hybrid (IMI CMS × GM40 restorer, A205/A122 hetero/double), 50 g ai/ha + 0.25% NIS, 7 DAT): 3.3%
Phytotoxicity Rating (% Crop Injury) (10-hybrid (IMI CMS × GM40 restorer, A205/A122 hetero/double), 50 g ai/ha + 0.25% NIS, 21 DAT): 0.0%
Phytotoxicity Rating (% Crop Injury) (10-hybrid (IMI CMS × GM40 restorer, A205/A122 hetero/double), 100 g ai/ha + 0.25% NIS, 7 DAT): 3.3%
Phytotoxicity Rating (% Crop Injury) (10-hybrid (IMI CMS × GM40 restorer, A205/A122 hetero/double), 100 g ai/ha + 0.25% NIS, 21 DAT): 0.0%
Phytotoxicity Rating (% Crop Injury) (10-hybrid (IMI CMS × GM40 restorer, A205/A122 hetero/double), 200 g ai/ha + 0.25% NIS, 7 DAT): 10.0%
